What was measured:
[1] = target: GDP-bound NRAS wild-type protein (Homo sapiens, UniProt P01111); experiment: Binding to NRAS by surface plasmon resonance (SPR), Single Cycle Kinetics; settings: KD ratio, GDP-bound NRAS wild-type vs GDP-bound KRAS wild-type, SPR
[2] = target: GDP-bound HRAS wild-type protein (Homo sapiens, UniProt P01112); experiment: Binding to HRAS by surface plasmon resonance (SPR), Single Cycle Kinetics; settings: KD ratio, GDP-bound HRAS wild-type vs GDP-bound KRAS wild-type, SPR
Sequence of GDP-bound HRAS wild-type protein (P01112 whole entry): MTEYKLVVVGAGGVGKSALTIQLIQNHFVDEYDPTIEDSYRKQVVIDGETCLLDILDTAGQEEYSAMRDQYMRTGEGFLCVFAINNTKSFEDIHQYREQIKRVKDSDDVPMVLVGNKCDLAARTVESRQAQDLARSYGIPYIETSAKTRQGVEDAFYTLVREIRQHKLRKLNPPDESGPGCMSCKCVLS

Sequence of GDP-bound NRAS wild-type protein (P01111 whole entry): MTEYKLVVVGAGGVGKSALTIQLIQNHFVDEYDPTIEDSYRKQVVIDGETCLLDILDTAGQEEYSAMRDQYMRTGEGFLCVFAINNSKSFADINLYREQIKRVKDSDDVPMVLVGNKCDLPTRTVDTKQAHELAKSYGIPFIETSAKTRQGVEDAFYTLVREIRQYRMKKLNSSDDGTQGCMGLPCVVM

Compound	NRAS/KRAS (ratio of KD value with respect to NRAS to KD value with respect to KRAS) [1]	HRAS/KRAS (ratio of KD value with respect to HRAS to KD value with respect to KRAS) [2]
CC[C@H](C)[C@@H]1NC(=O)[C@H](CC)N(C)C(=O)C[C@@H](C)N(C)C(=O)[C@H](C2CCCC2)N(C)C(=O)C2(CCCC2)NC(=O)[C@@H]2CCCN2C(=O)[C@H](CCc2cc(F)c(C(F)(F)F)c(F)c2)NC(=O)CN(C)C(=O)[C@H](Cc2ccc(C(F)(F)F)cc2)N2CC/C=C\C[C@@H](C2=O)N(C)C(=O)CN(C)C1=O [PP1101]	B (a compound having 3 or more and less than 10 is denoted as B)	B (a compound having 3 or more and less than 10 is denoted as B)
CC[C@H](C)[C@@H]1NC(=O)[C@H](CC(C)C)N(C)C(=O)C[C@@H](C)N(C)C(=O)[C@H](C2CCCC2)N(C)C(=O)C2(CCCC2)NC(=O)[C@@H]2CCCN2C(=O)[C@H](CCc2cc(F)c(C(F)(F)F)c(F)c2)NC(=O)CN(C)C(=O)[C@H](Cc2ccc(C(F)(F)F)cc2)N2CC/C=C\C[C@@H](C2=O)N(C)C(=O)CN(C)C1=O [PP1102]	B (a compound having 3 or more and less than 10 is denoted as B)	A (a compound having 10 or more and less than 20 is denoted as A)
CC[C@H](C)[C@@H]1NC(=O)[C@H](C)N(C)C(=O)C[C@@H](C(=O)N(C)C)N(C)C(=O)[C@H](C2CCCC2)N(C)C(=O)C2(CCC2)NC(=O)[C@@H]2CC(F)(F)CN2C(=O)[C@H](CCc2cc(F)c(C(F)(F)F)c(F)c2)NC(=O)CN(C)C(=O)[C@H](Cc2ccc(C(F)(F)F)cc2)N2CC/C=C\C[C@@H](C2=O)N(C)C(=O)CN(C)C1=O [PP1103]	A (a compound having 10 or more and less than 20 is denoted as A)	B (a compound having 3 or more and less than 10 is denoted as B)
CCO[C@@H]1C[C@H]2C(=O)NC3(CCCC3)C(=O)N(C)[C@@H](C3CCCC3)C(=O)N(C)[C@H](C(=O)N(C)C)CC(=O)N(C)[C@@H](C)C(=O)N[C@@H]([C@@H](C)CC)C(=O)N(C)CC(=O)N(C)[C@H]3C/C=C\CCN(C3=O)[C@@H](Cc3ccc(C(F)(F)F)cc3)C(=O)N(C)CC(=O)N[C@@H](CCc3cc(F)c(C(F)(F)F)c(F)c3)C(=O)N2C1 [PP1104]	A (a compound having 10 or more and less than 20 is denoted as A)	A (a compound having 10 or more and less than 20 is denoted as A)
CCO[C@@H]1C[C@H]2C(=O)NC3(CCCC3)C(=O)N(C)[C@@H](C3CCCC3)C(=O)N(C)[C@H](C(=O)N(C)C)CC(=O)N(C)[C@@H](CC(C)C)C(=O)N[C@@H]([C@@H](C)CC)C(=O)N(C)CC(=O)N(C)[C@H]3C/C=C\CCN(C3=O)[C@@H](Cc3ccc(C(F)(F)F)cc3)C(=O)N(C)CC(=O)N[C@@H](CCc3cc(F)c(C(F)(F)F)c(F)c3)C(=O)N2C1 [PP1105]	A (a compound having 10 or more and less than 20 is denoted as A)	A (a compound having 10 or more and less than 20 is denoted as A)
CC[C@H](C)[C@@H]1NC(=O)[C@H](CC)N(C)C(=O)C[C@@H](C(=O)N(C)C)N(CC)C(=O)[C@H](C2CCCC2)N(C)C(=O)C2(CCC2)NC(=O)[C@@H]2CCCN2C(=O)[C@H](CCc2cc(F)c(C(F)(F)F)c(F)c2)NC(=O)CN(C)C(=O)[C@H](Cc2ccc(C(F)(F)F)cc2)N2CC/C=C\C[C@@H](C2=O)N(C)C(=O)CN(C)C1=O [PP1106]	A (a compound having 10 or more and less than 20 is denoted as A)	A (a compound having 10 or more and less than 20 is denoted as A)
CCO[C@@H]1C[C@H]2C(=O)NC3(CCC3)C(=O)N(C)[C@@H](C3CCCC3)C(=O)N(C)[C@H](C(=O)N(C)C)CC(=O)N(C)[C@@H](CC(C)C)C(=O)N[C@@H]([C@@H](C)CC)C(=O)N(C)CC(=O)N(C)[C@H]3C/C=C\CCN(C3=O)[C@@H](Cc3ccc(C(F)(F)F)cc3)C(=O)N(C)CC(=O)N[C@@H](CCc3cc(F)c(C(F)(F)F)c(F)c3)C(=O)N2C1 [PP1107]	A (a compound having 10 or more and less than 20 is denoted as A)	A (a compound having 10 or more and less than 20 is denoted as A)
CCO[C@@H]1C[C@H]2C(=O)NC3(CCC3)C(=O)N(C)[C@@H](C3CCCC3)C(=O)N(C)[C@H](C(=O)N(C)C)CC(=O)N(C)[C@@H](C)C(=O)N[C@@H]([C@@H](C)CC)C(=O)N(C)CC(=O)N(C)[C@H]3C/C=C\CCN(C3=O)[C@@H](Cc3ccc(C(F)(F)F)cc3)C(=O)N(C)CC(=O)N[C@@H](CCc3cc(F)c(C(F)(F)F)c(F)c3)C(=O)N2C1 [PP1108]	A (a compound having 10 or more and less than 20 is denoted as A)	A (a compound having 10 or more and less than 20 is denoted as A)
CCO[C@@H]1C[C@H]2C(=O)NC3(CCC3)C(=O)N(C)[C@@H](C3CCCC3)C(=O)N(C)[C@H](C(=O)N(C)C)CC(=O)N(C)[C@@H](C(C)C)C(=O)N[C@@H]([C@@H](C)CC)C(=O)N(C)CC(=O)N(C)[C@H]3C/C=C\CCN(C3=O)[C@@H](Cc3ccc(C(F)(F)F)cc3)C(=O)N(C)CC(=O)N[C@@H](CCc3cc(F)c(C(F)(F)F)c(F)c3)C(=O)N2C1 [PP1109]	A (a compound having 10 or more and less than 20 is denoted as A)	B (a compound having 3 or more and less than 10 is denoted as B)
CCC[C@H]1C(=O)N[C@@H]([C@@H](C)CC)C(=O)N(C)CC(=O)N(C)[C@H]2C/C=C\CCN(C2=O)[C@@H](Cc2ccc(C(F)(F)F)cc2)C(=O)N(C)CC(=O)N[C@@H](CCc2cc(F)c(C(F)(F)F)c(F)c2)C(=O)N2C[C@H](OCC)C[C@H]2C(=O)NC2(CCC2)C(=O)N(C)[C@@H](C2CCCC2)C(=O)N(C)[C@H](C(=O)N(C)C)CC(=O)N1C [PP1110]	A (a compound having 10 or more and less than 20 is denoted as A)	B (a compound having 3 or more and less than 10 is denoted as B)
CCO[C@@H]1C[C@H]2C(=O)NC3(CCC3)C(=O)N(C)[C@@H](C3CCCC3)C(=O)N(C)[C@H](C(=O)N(C)C)CC(=O)N(C)[C@@H](CC3CC3)C(=O)N[C@@H]([C@@H](C)CC)C(=O)N(C)CC(=O)N(C)[C@H]3C/C=C\CCN(C3=O)[C@@H](Cc3ccc(C(F)(F)F)cc3)C(=O)N(C)CC(=O)N[C@@H](CCc3cc(F)c(C(F)(F)F)c(F)c3)C(=O)N2C1 [PP1111]	A (a compound having 10 or more and less than 20 is denoted as A)	A (a compound having 10 or more and less than 20 is denoted as A)
CCO[C@@H]1C[C@H]2C(=O)NC3(CCC3)C(=O)N(C)[C@@H](C3CCCC3)C(=O)N(C)[C@H](C(=O)N(C)C)CC(=O)N(C)[C@@H](CC3CCCC3)C(=O)N[C@@H]([C@@H](C)CC)C(=O)N(C)CC(=O)N(C)[C@H]3C/C=C\CCN(C3=O)[C@@H](Cc3ccc(C(F)(F)F)cc3)C(=O)N(C)CC(=O)N[C@@H](CCc3cc(F)c(C(F)(F)F)c(F)c3)C(=O)N2C1 [PP1112]	A (a compound having 10 or more and less than 20 is denoted as A)	B (a compound having 3 or more and less than 10 is denoted as B)
